Laboratory results: patent US20240270699A1, “COMPOUNDS HAVING N-ARYLPYRIMIDIN-2-AMINE DERIVATIVES AS THERAPEUTIC AGENTS” (Lomond Therapeutics, Inc., priority 2021, published 2024)
Where two headings read alike, the source gives them in different places.

How the values were obtained:
[1] = tested on: Jurkat cells; assay: IL-2 release Jurkat assay (anti-CD3/anti-CD28 stimulation, IL-2 ELISA); assay type: cell-based, human; conditions: activation with 400 ng/mL aCD3 + 400 ng/mL aCD28, 24 hours
[2] = Pharmacokinetic (PK) study in mice; assay type: in vivo; conditions: mouse, plasma, male CD-1 mice, PO 10 mg/kg, solution, vs IV 2 mg/kg, read-out: Fabs, % (percent bioavailability)
[3] = biological target: T1, recombinant HPK1 protein (Homo sapiens, UniProt Q92918); assay: Primary assay of HPK1 enzymatic activity inhibition (ADP-Glo luminescence); assay type: biochemical; conditions: recombinant HPK1, MBP substrate, 1 hour at room temperature
T1 construct: purchased Promega V6398
T1 sequence (Q92918 1-346 limits assumed): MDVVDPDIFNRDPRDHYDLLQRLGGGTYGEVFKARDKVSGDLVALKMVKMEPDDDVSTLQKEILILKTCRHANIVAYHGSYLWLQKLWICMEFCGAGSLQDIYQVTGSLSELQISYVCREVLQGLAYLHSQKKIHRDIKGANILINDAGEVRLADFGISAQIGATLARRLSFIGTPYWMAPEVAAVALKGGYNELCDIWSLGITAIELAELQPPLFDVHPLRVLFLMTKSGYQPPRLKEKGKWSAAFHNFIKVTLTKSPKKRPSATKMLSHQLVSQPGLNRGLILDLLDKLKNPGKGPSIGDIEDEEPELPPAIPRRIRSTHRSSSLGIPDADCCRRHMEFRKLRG

[4] = Table B: Jurkat, 1.5 μM of tested compounds
[5] = vehicle 80% PEG400, 10% TPGS and 10% ethanol
[6] = Table C: Jurkat, 6 μM of tested compounds, stimulated vehicle = A
[7] = Table E: Jurkat, 1.5 μM of tested compounds
[8] = Table G: Jurkat, 1.0 μM of tested compounds
[9] = Table F: Jurkat, 1.0 μM of tested compounds

SMILES | bioavailability [2, 5] [%] | IC50 [3] [nM] | further results
O=C1CCc2cc(Nc3ncc(-c4nnco4)c(N[C@H](CO)c4ccccc4)n3)ccc2N1 [Compound 19, 6-[[4-[[(1S)-2-hydroxy-1-phenyl-ethyl]amino]-5-(1,3,4-oxadiazol-2-yl)pyrimidin-2-yl]amino]-3,4-dihydro-1H-quinolin-2-one] | 16.3 | < 50 | IL-2, pg/mL stimulated [1, 4]: B (5.0 pg/mL≤IL-2<25.0 pg/mL)
Cc1noc(-c2cnc(Nc3ccc4c(c3)CCC(=O)N4)nc2N[C@H](CO)c2ccccc2)n1 [Compound 86, 6-[[4-[[(1S)-2-hydroxy-1-phenyl-ethyl]amino]-5-(3-methyl-1,2,4-oxadiazol-5-yl)pyrimidin-2-yl]amino]-3,4-dihydro-1H-quinolin-2-one] | 83.6 | < 50 | IL-2, pg/mL stimulated [1, 4]: C (25.0 pg/mL≤IL-2<35.0 pg/mL)
CS(=O)(=O)c1ccc(Nc2ncc(-c3nnco3)c(N[C@H](CO)c3ccccc3)n2)cc1F [Compound 161, (2S)-2-{[2-{[3-fluoro-4-(methylsulfonyl)phenyl]amino}-5-(1,3,4-oxadiazol-2-yl)pyrimidin-4-yl]amino}-2-phenylethanol] | – | < 50 | IL-2, pg/mL stimulated [1, 6]: C (100 pg/mL≤IL-2<150 pg/mL); bioavailability ([2]; vehicle 20% HP-b-CD): 95.1%
O=S1(=O)CCCc2cc(Nc3ncc(-c4nnco4)c(N[C@H](CO)c4ccccc4)n3)ccc21 [Compound 228, (2S)-2-[[2-[(1,1-dioxo-3,4-dihydro-2H-thiochromen-6-yl)amino]-5-(1,3,4-oxadiazol-2-yl)pyrimidin-4-yl]amino]-2-phenyl-ethanol] | 11.4 | < 50 | IL-2, pg/mL stimulated [1, 7]: B (50 pg/mL≤IL-2<100 pg/mL)
Cc1noc(-c2cnc(Nc3ccc(S(C)(=O)=O)c(C)c3)nc2N[C@H](CO)c2ccccc2)n1 [Compound 252, (2S)-2-{[2-{[3-methyl-4-(methylsulfonyl)phenyl]amino}-5-(3-methyl-1,2,4-oxadiazol-5-yl)pyrimidin-4-yl]amino}-2-phenylethanol] | 19.9 | 50 to 200 | IL-2, pg/mL stimulated [1, 6]: B (50 pg/mL≤IL-2<100 pg/mL)
Cc1noc(-c2cnc(Nc3ccc(S(C)(=O)=O)c(F)c3)nc2N[C@H](CO)c2ccccc2)n1 [Compound 270, (2S)-2-{[2-{[3-fluoro-4-(methylsulfonyl)phenyl]amino}-5-(3-methyl-1,2,4-oxadiazol-5-yl)pyrimidin-4-yl]amino}-2-phenylethanol] | 76.5 | < 50 | IL-2, pg/mL stimulated [1, 6]: A (IL-2<50 pg/mL)
Cc1noc(-c2cnc(Nc3ccc4c(c3)CCNC4=O)nc2N[C@H](CO)c2ccccc2)n1 [Compound 558, 6-[[4-[[(1S)-2-hydroxy-1-phenyl-ethyl]amino]-5-(3-methyl-1,2,4-oxadiazol-5-yl)pyrimidin-2-yl]amino]-3,4-dihydro-2H-isoquinolin-1-one] | 16.3 | < 50 | IL-2, pg/mL stimulated ([1]; Table D: Jurkat, 6 μM of tested compounds, stimulated vehicle = B): D (150 pg/mL≤IL-2)
O=C1NCCc2cc(Nc3ncc(-c4nnco4)c(N[C@H](CO)c4ccccc4)n3)ccc21 [Compound 563, 6-[[4-[[(1S)-2-hydroxy-1-phenyl-ethyl]amino]-5-(1,3,4-oxadiazol-2-yl)pyrimidin-2-yl]amino]-3,4-dihydro-2H-isoquinolin-1-one] | 9.2 | < 50 | –
Cc1noc(-c2cnc(Nc3ccc4c(c3)CNC4=O)nc2N[C@H](CO)c2ccccc2)n1 [Compound 571, 5-[[4-[[(1S)-2-hydroxy-1-phenyl-ethyl]amino]-5-(3-methyl-1,2,4-oxadiazol-5-yl)pyrimidin-2-yl]amino]isoindolin-1-one] | 8 | < 50 | IL-2, pg/mL stimulated [1, 4]: C (25.0 pg/mL≤IL-2<35.0 pg/mL)
COc1cccc([C@@H](CO)Nc2nc(Nc3ccc4c(c3)CCNC4=O)ncc2-c2nc(C)no2)c1 [Compound 575, 6-[[4-[[(1S)-2-hydroxy-1-(3-methoxyphenyl)ethyl]amino]-5-(3-methyl-1,2,4-oxadiazol-5-yl)pyrimidin-2-yl]amino]-3,4-dihydro-2H-isoquinolin-1-one] | – | < 50 | IL-2, pg/mL stimulated [1, 7]: C (100 pg/mL≤IL-2<150 pg/mL)
Cc1noc(-c2cnc(Nc3ccc4c(c3)CC(C)(C)NC4=O)nc2N[C@H](CO)c2ccccc2)n1 [Compound 578, 6-[[4-[[(1S)-2-hydroxy-1-phenyl-ethyl]amino]-5-(3-methyl-1,2,4-oxadiazol-5-yl)pyrimidin-2-yl]amino]-3,3-dimethyl-2,4-dihydroisoquinolin-1-one] | – | < 50 | IL-2, pg/mL stimulated [1, 8]: C (100 pg/mL≤IL-2<150 pg/mL)
Cc1noc(-c2cnc(Nc3ccc4c(c3)C(C)(C)NC4=O)nc2N[C@H](CO)c2ccccc2)n1 [Compound 579, 5-[[4-[[(1S)-2-hydroxy-1-phenyl-ethyl]amino]-5-(3-methyl-1,2,4-oxadiazol-5-yl)pyrimidin-2-yl]amino]-3,3-dimethyl-isoindolin-1-one] | – | < 50 | IL-2, pg/mL stimulated [1, 9]: A (IL-2<50 pg/mL)
Cc1noc(-c2cnc(Nc3ccc4c(c3)CCN(COCC[Si](C)(C)C)C4=O)nc2N[C@H](CO)c2ccccc2)n1 [Compound 582, 6-[[4-[[(1S)-2-hydroxy-1-phenyl-ethyl]amino]-5-(3-methyl-1,2,4-oxadiazol-5-yl)pyrimidin-2-yl]amino]-2-(2-trimethylsilylethoxymethyl)-3,4-dihydroisoquinolin-1-one] | – | 50 to 200 | IL-2, pg/mL stimulated [1, 9]: B (50 pg/mL≤IL-2<100 pg/mL)
CN(C)Cc1noc(-c2cnc(Nc3ccc4c(c3)CCCS4(=O)=O)nc2N[C@H](CO)c2ccccc2)n1 [Compound 583, (2S)-2-[[5-[3-[(dimethylamino)methyl]-1,2,4-oxadiazol-5-yl]-2-[(1,1-dioxo-3,4-dihydro-2H-thiochromen-6-yl)amino]pyrimidin-4-yl]amino]-2-phenyl-ethanol] | – | < 50 | IL-2, pg/mL stimulated [1, 9]: B (50 pg/mL≤IL-2<100 pg/mL)
Cn1cc(-c2cnc(Nc3ccc4c(c3)CCNC4=O)nc2N[C@H](CO)c2ccccc2)cn1 [Compound 584, 6-[[4-[[(1S)-2-hydroxy-1-phenyl-ethyl]amino]-5-(1-methylpyrazol-4-yl)pyrimidin-2-yl]amino]-3,4-dihydro-2H-isoquinolin-1-one] | – | < 50 | IL-2, pg/mL stimulated [1, 9]: A (IL-2<50 pg/mL)
CN(C)Cc1noc(-c2cnc(Nc3ccc4c(c3)CNC4=O)nc2N[C@H](CO)c2ccccc2)n1 [Compound 585, 5-[[5-[3-[(dimethylamino)methyl]-1,2,4-oxadiazol-5-yl]-4-[[(1S)-2-hydroxy-1-phenyl-ethyl]amino]pyrimidin-2-yl]amino]isoindolin-1-one] | – | < 50 | IL-2, pg/mL stimulated [1, 8]: D (150 pg/mL≤IL-2)
O=S1(=O)CCCc2cc(Nc3ncc(-c4nc(CN5CCCC5)no4)c(N[C@H](CO)c4ccccc4)n3)ccc21 [Compound 586, (2S)-2-[[2-[(1,1-dioxo-3,4-dihydro-2H-thiochromen-6-yl)amino]-5-[3-(pyrrolidin-1-ylmethyl)-1,2,4-oxadiazol-5-yl]pyrimidin-4-yl]amino]-2-phenyl-ethanol] | – | < 50 | IL-2, pg/mL stimulated [1, 8]: D (150 pg/mL≤IL-2)
O=C1NCc2cc(Nc3ncc(-c4nc(CN5CCCC5)no4)c(N[C@H](CO)c4ccccc4)n3)ccc21 [Compound 587, 5-[[4-[[(1S)-2-hydroxy-1-phenyl-ethyl]amino]-5-[3-(pyrrolidin-1-ylmethyl)-1,2,4-oxadiazol-5-yl]pyrimidin-2-yl]amino]isoindolin-1-one] | – | < 50 | IL-2, pg/mL stimulated [1, 8]: D (150 pg/mL≤IL-2)
